# From patent US11306036B2, “Composition containing a urease inhibitor” (RHODIA OPERATIONS, priority 2016, dated 2022)
# Test: Stability test: remaining NBPT content on treated granulated urea after storage (HPLC)
# Format: physicochemical
# Details: storage at 40° C., 50% humidity, up to 90 days
# Experimental: The sample was prepared by mixing 6.00 g of TMBPA and 8.11 g of NBPT (98% purity) in 15.89 g of Augeo® SL 191 at a temperature of 25° C. The concentration of TMBPA was 20% and the concentration of NBPT was 26.5%. Then, the solution prepared was sprayed onto 50 g of granulated urea at a dosage of 0.3% of urea weight.
# For stability tests, the treated granulated urea was kept at 40° C. and an atmospheric humidity of 50% for 30 days, 60 days and 90 days, respectively. The remaining NBPT content (expressed as percentages based on initial NBPT content) was measured by using HPLC analysis according to the standard procedure.
smiles,measurement,value
"CCCCNP(N)(N)=S [NBPT, N-(n-butyl)thiophosphoric acid triamide]",stability of NBPT after application to the urea fertilizer (in words),poor stability
